Assay results from patent US10287267B2, “Isoquinolin-3-yl carboxamides and preparation and use thereof” (Samumed, LLC, priority 2016, dated 2019).
pEC50: −log10 of the molar value.

Legend:
[1] = test system: Wnt pathway (Sp5-Luc reporter, TCF/LEF binding sites) in SW480 colon carcinoma cells; assay: Screening assay for Wnt activity: Sp5-Luc reporter gene assay; type: cell-based, human; conditions: Homo sapiens; for pEC50: Sp5-Luc reporter, SW480 cells, 36 to 48 hours; for inhibition at 10 µM: SW480, read-out: percent inhibition at 10 μM;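 for all read-outs here: firefly luciferase luminescence read in stably transduced SW480 cells carrying the Sp5 promoter reporter with eight TCF/LEF sites, compounds given in 0.1% DMSO final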
Method: The screening assay for Wnt activity is described as follows.
Following incubation, 15 μl of BriteLite Plus luminescence reagent (Perkin Elmer) was added to each well of the 384-well assay plates. The plates were placed on an orbital shaker for 2 min and then luminescence was quantified using the Envision (Perkin Elmer) plate reader.

[2] = molecular target: recombinant DYRK1A kinase (Homo sapiens (Human), UniProt Q13627); assay: DYRK1A kinase assay (Ser/Thr 18 peptide Z-lyte FRET); type: biochemical; conditions: 30 μM ATP, 1 h room temperature;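 note: Read-out is the coumarin to fluorescein emission ratio, referenced to unphosphorylated (0%) and phosphorylated (100%) Ser/Thr 18 peptide controls, values from dose-response curves by non-linear regression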
recombinant GSK3β kinase = recombinant GSK3β kinase (Homo sapiens (Human), UniProt P49841); assay: GSK3β kinase assay (Ser/Thr 09 peptide Z-lyte FRET); type: biochemical; conditions: 46 μM ATP, 1 h room temperature;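 note: kinase activity read as coumarin to fluorescein emission ratio, 11-point threefold dilutions from 10 µM to 0.0003 µM in duplicate, unphosphorylated and phosphorylated peptide as 0% and 100% controls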
[3] = test system: Tau phosphorylation at Ser396 (pSer396); assay: Tau phosphorylation assay (pSer396 ELISA / western blot) in SH-SY5Y cells; type: cell-based, human; conditions: Homo sapiens; SH-SY5Y cells, overnight (16-18 h) exposure; read-out: pSer396 Tau EC50;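 note: EC50 for reduction of Tau pSer396 in lysed cells, measured by colorimetric ELISA or chemiluminescent western blot, both using the same pSer396 antibody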
[4] = test system: SW480 colon carcinoma cells; assay: Cell viability assay (CellTiter-Glo); type: cell-based, human; conditions: Homo sapiens; for pEC50: 96 h, SW480 cells, CellTiter-Glo, four days incubation; for inhibition at 10 µM: SW480, read-out: percent inhibition at 10 μM
[5] = test system: α-smooth muscle actin (αSMA) positive LL29 cells; assay: Inhibition of fibrotic process: αSMA in TGF-β1 treated primary human fibroblasts from IPF patients; type: cell-based; conditions: Homo sapiens, Fibroblast; for pEC50: 96 h, Table 8, LL29 fibroblasts from IPF patients, TGF-β1 20 ng/mL, 4 days, dose-response 10 μM to 0.94 nM; for inhibition at 10 µM: read-out: percent value in parentheses beside EC50 >10 μM;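 for all read-outs here: controls were TGF-β1 stimulated wells with DMSO vehicle (positive) and cells given DMSO alone (negative), cultured in F12 medium with 1% fetal bovine serum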
IL-6 = IL-6 inhibition in LPS-stimulated human peripheral blood mononuclear cells (HTRF); type: cell-based; conditions: Homo sapiens, PBMC; for pEC50: Table 9, huPBMCs, LPS 50 ng/mL, 22 hours, dose-response starting from 10 μM; for inhibition at 10 µM: read-out: percent value in parentheses beside EC50 >10 μM;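 for all read-outs here: IL-6 detected by HTRF with an XL665- and Cryptate-labelled anti-IL-6 antibody pair, samples run in duplicate, EC50 obtained from a four-parameter Levenberg-Marquardt curve fit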
Method: After 22 hour incubation, a mixture of anti-IL6 XL665 and anti-IL-6 Cryptate diluted in reconstitution buffer (Catalog #62IL6PEC, Cisbio Inc., Bedford, Mass.) was added to each well. […] All samples were processed in duplicate. […] EC50 was determined using software generated by Dotmatics Limited (Windhill Bishops Stortford Herts, UK) using the Levenberg-Marquardt 4 parameter fitting procedure with finite different gradients.

recombinant GSK3β kinase, sequence (P49841 whole entry): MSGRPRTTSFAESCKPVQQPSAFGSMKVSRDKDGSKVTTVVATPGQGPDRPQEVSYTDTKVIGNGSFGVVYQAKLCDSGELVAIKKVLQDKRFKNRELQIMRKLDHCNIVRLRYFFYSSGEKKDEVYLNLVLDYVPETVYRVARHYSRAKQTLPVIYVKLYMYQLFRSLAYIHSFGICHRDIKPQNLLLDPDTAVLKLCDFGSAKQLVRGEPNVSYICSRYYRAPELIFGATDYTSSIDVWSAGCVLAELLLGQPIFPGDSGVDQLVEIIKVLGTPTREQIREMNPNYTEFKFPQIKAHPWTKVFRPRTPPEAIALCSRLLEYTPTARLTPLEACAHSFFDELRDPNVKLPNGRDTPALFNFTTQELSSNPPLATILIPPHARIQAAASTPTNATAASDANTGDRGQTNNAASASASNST

For O=C(CN1CCOCC1)Nc1cc2cc(-c3cncs3)ccc2cn1 [Compound 773, 2-Morpholino-N-(6-(thiazol-5-yl)isoquinolin-3-yl)acetamide], the pEC50 [1] was 5.18, the pEC50 [2] was 8.42 and the pEC50 (recombinant GSK3β kinase) was 6.66. The pEC50 [3] was 5.66, the pEC50 [4] was < 5.00 and the inhibition at 10 µM [4] was 48.4%. For the same compound, the pEC50 [5] was < 5.00, the inhibition at 10 µM [5] was 30.3% and the pEC50 (IL-6) was 5.46.
For Cn1ncc(-c2ccc3cnc(NC(=O)C(C)(C)F)cc3c2)c1CN1CCCCC1 [Compound 784, 2-Fluoro-2-methyl-N-(6-(1-methyl-5-(piperidin-1-ylmethyl)-1H-pyrazol-4-yl)isoquinolin-3-yl)propanamide], the pEC50 [1] was 5.23, the pEC50 [2] was 7.97 and the pEC50 (recombinant GSK3β kinase) was 6.88. The pEC50 [3] was 5.66, the pEC50 [4] was < 5.00 and the inhibition at 10 µM [4] was 39.7%. The pEC50 [5] was < 5.00, the inhibition at 10 µM [5] was 37.4% and the inhibition at 10 µM (IL-6) was 3.7%. The pEC50 (IL-6) was < 5.00.
With CCN(CC)CC(=O)Nc1cc2cc(-c3cnn(C)c3CN3CCCCC3)ccc2cn1 [Compound 785, 2-(Diethylamino)-N-(6-(1-methyl-5-(piperidin-1-ylmethyl)-1H-pyrazol-4-yl)isoquinolin-3-yl)acetamide] the pEC50 [1] was 5.55, the pEC50 [2] was 8.00 and the pEC50 (recombinant GSK3β kinase) was 7.36. The pEC50 [3] was 6.31, the pEC50 [4] was 5.54 and the pEC50 [5] was 5.93. For the same compound, the pEC50 (IL-6) was 5.04.
Cn1ncc(-c2ccc3cnc(NC(=O)C4CC5(C4)CN(CCF)C5)cc3c2)c1CN1CCCCC1 [Compound 791, 2-(2-Fluoroethyl)-N-(6-(1-methyl-5-(piperidin-1-ylmethyl)-1H-pyrazol-4-yl)isoquinolin-3-yl)-2-azaspiro[3.3]heptane-6-carboxamide] was tested, and the pEC50 [1] was 6.67, the pEC50 [2] was 8.66 and the pEC50 (recombinant GSK3β kinase) was 8.30. For the same compound, the pEC50 [3] was 7.26, the pEC50 [4] was 6.86 and the pEC50 [5] was 7.17. For the same compound, the pEC50 (IL-6) was 6.46.
Work on CO[C@H]1CC[C@H](C(=O)Nc2cc3cc(-c4cnn(C)c4CN4CCCCC4)ccc3cn2)CC1 [Compound 795, trans-4-Methoxy-N-(6-(1-methyl-5-(piperidin-1-ylmethyl)-1H-pyrazol-4-yl)isoquinolin-3-yl)cyclohexane-1-carboxamide] yielded a pEC50 [1] of 6.33, a pEC50 [2] of 8.62 and a pEC50 (recombinant GSK3β kinase) of 7.48. For the same compound, the pEC50 [3] was 6.40, the pEC50 [4] was 6.09 and the pEC50 [5] was 6.64. For the same compound, the pEC50 (IL-6) was 5.91.
Compound Cn1ncc(-c2ccc3cnc(NC(=O)[C@H]4CCCN4)cc3c2)c1CN1CCCCC1 [Compound 803, (R)—N-(6-(1-Methyl-5-(piperidin-1-ylmethyl)-1H-pyrazol-4-yl)isoquinolin-3-yl)pyrrolidine-2-carboxamide] has a pEC50 [1] of 5.45, a pEC50 [2] of 7.90 and a pEC50 (recombinant GSK3β kinase) of 6.79. For the same compound, the pEC50 [3] was 5.43, the pEC50 [4] was 5.34 and the pEC50 [5] was < 5.00. It also gave an inhibition at 10 µM [5] of 27.8% and a pEC50 (IL-6) of 5.48.
CC(C)CN1CCC(C(=O)Nc2cc3cc(-c4cnn(C)c4CN4CCCCC4)ccc3cn2)CC1 [Compound 822, 1-isobutyl-N-(6-(1-methyl-5-(piperidin-1-ylmethyl)-1H-pyrazol-4-yl)isoquinolin-3-yl)piperidine-4-carboxamide] showed a pEC50 [1] of 6.29, a pEC50 [2] of 8.39 and a pEC50 (recombinant GSK3β kinase) of 8.05. For the same compound, the pEC50 [3] was 6.61, the pEC50 [4] was 6.15 and the pEC50 [5] was 6.67. It also gave a pEC50 (IL-6) of 5.49.
Cn1ncc(-c2ccc3cnc(NC(=O)C4CCN(C5COC5)CC4)cc3c2)c1CN1CCCCC1 [Compound 826, N-(6-(1-Methyl-5-(piperidin-1-ylmethyl)-1H-pyrazol-4-yl)isoquinolin-3-yl)-1-(oxetan-3-yl)piperidine-4-carboxamide] showed a pEC50 [1] of 6.22, a pEC50 [2] of 8.41 and a pEC50 (recombinant GSK3β kinase) of 8.15. For the same compound, the pEC50 [3] was 6.25, the pEC50 [4] was 6.05 and the pEC50 [5] was 6.83. The pEC50 (IL-6) was 5.48.
In the case of Cn1ncc(-c2ccc3cnc(NC(=O)C4CCN(C(=O)c5ccccc5)CC4)cc3c2)c1CN1CCCCC1 [Compound 831, 1-Benzoyl-N-(6-(1-methyl-5-(piperidin-1-ylmethyl)-1H-pyrazol-4-yl)isoquinolin-3-yl)piperidine-4-carboxamide], the pEC50 [1] was 6.15, the pEC50 [2] was 8.49 and the pEC50 (recombinant GSK3β kinase) was 8.00. The pEC50 [3] was 6.72, the pEC50 [4] was 6.04 and the pEC50 [5] was 6.61. For the same compound, the pEC50 (IL-6) was 6.09.
For CC1CCN(CC(=O)Nc2cc3cc(-c4cnn(C)c4CN4CCCCC4)ccc3cn2)CC1 [Compound 851, N-(6-(1-Methyl-5-(piperidin-1-ylmethyl)-1H-pyrazol-4-yl)isoquinolin-3-yl)-2-(4-methylpiperidin-1-yl)acetamide], the inhibition at 10 µM [1] was 6.4%, the pEC50 [1] was < 5.00 and the pEC50 [2] was 5.30. For the same compound, the pEC50 (recombinant GSK3β kinase) was 5.30, the pEC50 [3] was 6.46 and the pEC50 [4] was < 5.00. The inhibition at 10 µM [4] was 30.4%, the pEC50 [5] was 6.16 and the inhibition at 10 µM (IL-6) was 2.9%. For the same compound, the pEC50 (IL-6) was < 5.00.
In the case of Cc1nnc(-c2ccc3cnc(NC(=O)C4(F)CCCCC4)cc3c2)s1 [Compound 883, 1-Fluoro-N-(6-(5-methyl-1,3,4-thiadiazol-2-yl)isoquinolin-3-yl)cyclohexane-1-carboxamide], the inhibition at 10 µM [1] was 43.2%, the pEC50 [1] was < 5.00 and the pEC50 [2] was 8.05. The pEC50 (recombinant GSK3β kinase) was 7.12, the pEC50 [3] was 5.96 and the pEC50 [4] was < 5.00. For the same compound, the inhibition at 10 µM [4] was 35.5%, the pEC50 [5] was < 5.00 and the inhibition at 10 µM [5] was 14%. The inhibition at 10 µM (IL-6) was 9.1% and the pEC50 (IL-6) was < 5.00.
Work on CO[C@H]1CC[C@H](C(=O)Nc2cc3cc(-c4nnc(C)s4)ccc3cn2)CC1 [Compound 885, trans-4-Methoxy-N-(6-(5-methyl-1,3,4-thiadiazol-2-yl)isoquinolin-3-yl) cyclohexane-1-carboxamide] yielded a pEC50 [1] of 5.35, a pEC50 [2] of 7.46 and a pEC50 (recombinant GSK3β kinase) of 7.34. For the same compound, the pEC50 [3] was 6.06, the pEC50 [4] was 5.11 and the pEC50 [5] was 5.58. For the same compound, the inhibition at 10 µM (IL-6) was 7% and the pEC50 (IL-6) was < 5.00.
Cc1nnc(-c2ccc3cnc(NC(=O)C4CCN(CCF)CC4)cc3c2)s1 [Compound 900, 1-(2-Fluoroethyl)-N-(6-(5-methyl-1,3,4-thiadiazol-2-yl)isoquinolin-3-yl) piperidine-4-carboxamide] showed a pEC50 [1] of 5.99, a pEC50 [2] of 8.54 and a pEC50 (recombinant GSK3β kinase) of 7.96. The pEC50 [3] was 6.74, the pEC50 [4] was 5.41 and the pEC50 [5] was 6.35. For the same compound, the pEC50 (IL-6) was 5.01.
Work on Cc1nnc(-c2ccc3cnc(NC(=O)C4CCN(C(=O)c5ccccc5)CC4)cc3c2)s1 [Compound 921, 1-Benzoyl-N-(6-(5-methyl-1,3,4-thiadiazol-2-yl)isoquinolin-3-yl)piperidine-4-carboxamide] yielded a pEC50 [1] of 6.11, a pEC50 [2] of 8.68 and a pEC50 (recombinant GSK3β kinase) of 8.30. For the same compound, the pEC50 [3] was 6.96, the pEC50 [4] was 5.79 and the pEC50 [5] was 7.12. For the same compound, the inhibition at 10 µM (IL-6) was 9.9% and the pEC50 (IL-6) was < 5.00.
With Cc1nnc(-c2ccc3cnc(NC(=O)CN4CCCC4)cc3c2)s1 [Compound 932, N-(6-(5-Methyl-1,3,4-thiadiazol-2-yl)isoquinolin-3-yl)-2-(pyrrolidin-1-yl) acetamide] the pEC50 [1] was 6.02, the pEC50 [2] was 7.77 and the pEC50 (recombinant GSK3β kinase) was 7.85. The pEC50 [3] was 6.45, the pEC50 [4] was 5.26 and the pEC50 [5] was 6.23. For the same compound, the inhibition at 10 µM (IL-6) was 7.5% and the pEC50 (IL-6) was < 5.00.
Cc1nnc(-c2ccc3cnc(NC(=O)CN4CCCCC4)cc3c2)s1 [Compound 939, N-(6-(5-Methyl-1,3,4-thiadiazol-2-yl)isoquinolin-3-yl)-2-(piperidin-1-yl) acetamide] gave a pEC50 [1] of 5.68, a pEC50 [2] of 7.86 and a pEC50 (recombinant GSK3β kinase) of 7.89. The pEC50 [3] was 6.56, the pEC50 [4] was < 5.00 and the inhibition at 10 µM [4] was 31.6%. For the same compound, the pEC50 [5] was 5.94, the inhibition at 10 µM (IL-6) was 3.6% and the pEC50 (IL-6) was < 5.00.
